In patent US10729810B2, “Methods, systems, and compositions for promoting bone growth” (Cayman Chemical Company, Inc., priority 2013, dated 2020):
Each block holds one compound with its values, some of them ahead of it.

Experiments:
[1] = molecular target: T1, Human Prostanoid EP4 Receptor (Homo sapiens, UniProt P35408); assay: Radioligand binding assay, agonist site of human prostanoid EP4 receptor in transfected HEK-293 cells; details: for hEP4 receptor binding, % @100: @100, printed in the IC50 (nM) column
T1 construct: expressed in transfected cells; host or cells: HEK-293 cells (membrane homogenates)
Experimental: Radioligand Binding Assay for the Evaluation of the Affinity of Compounds for the Agonist Site of the Human Prostanoid EP4 Receptor in Transfected HEK-293 Cells
Following incubation, the samples are filtered rapidly under vacuum through glass fiber filters (GF/B, Packard) presoaked with 0.3% PEI and rinsed several times with ice-cold 50 mM Tris-HCl using a 96-sample cell harvester (Unifilter, Packard). The filters are dried then counted for radioactivity in a scintillation counter (Topcount, Packard) using a scintillation cocktail (Microscint 0, Packard).

rat calvarial defect [2] = assay: Rat calvarial defect model, drug-cement loaded into intact demineralized bone matrix; type: in vivo, female Sprague Dawley rats; details: 5.0 mm defect; 10 mg/gm of cement; four weeks; FIG. 4
Experimental: Bone defects are created by removal of bone from the cranium of female Sprague Dawley rats by a bone trephine (cranial defect). Cranial defects are 5.0 mm in diameter and the cranium approximately 1 mm thick.
EXAMPLE 2E′ is delivered inside calcium phosphate cement that, after loading with drug set inside three voids each of approximately 1.0 mm in diameter drilled into a solid demineralized bone matrix circular block of 5.0 mm in diameter and 1 mm thickness. EXAMPLE 2E′ is tested at 10 mg/gm of cement. A negative control group treated with dosing matrix containing no drug (Vehicle) is also included in the study.
Dosing solutions are made from a 5 mg/ml EXAMPLE 2E′ stock which is made by dissolving 2.08 mg of neat EXAMPLE 2E′ in 416 μl of 100% ethanol.
The volume of each dosing void is π*r^2*matrix thickness=3.14*0.5^2*1=0.8 μl. Thus a 5 mm solid demineralized matrix with three voids filled with cement contains 2.4 μl of loading cement. The cement that is used weighs 107 mg for 100 μl volume. Thus 2.4 ul of volume is occupied by 2.6 mg of cement. A 10 mg/gm dosing cement provides 26 ug of EXAMPLE 2E′ for each 5 mm intact demineralized bone matrix block. […]
The area measured each week is compared to that of the first week and the degree of repair calculated by the following formula: (original area−current area)/original area*100

osteoporotic femur = assay: Bone density of osteoporotic femur after osteotomy with drug-cement insert in ovariectomized rats; type: in vivo, Female Sprague Dawley rats
Experimental: Dosing solutions are made from a 5 mg/ml Example 2E' stock which is made by dissolving 2.08 mg of neat Example 2E' in 416 μl of 100% ethanol. The dosing solution for Example 2E' was made by adding 44.4 μL of the 5 mg/ml stock to 22.2 mg of calcium phosphate cement powder. The Vehicle dosing solution was made by adding 50.4 μl of ethanol containing no Example 2E' to 25.2 mg of calcium phosphate cement powder. After the ethanol has been vented off, the cement is wetted with a setting solution and mixed thoroughly for 1 minute as the cement begins to set. The cement is separated into five aliquots and placed on a glass microscope slide. […] After obtaining the CT image the cross sectional density of the bone 3 mm dorsal to the implant site is measured in three places and the measurements averaged. The density of the phantom is measured at the same time and is compared to the phantom measurement on week 0. […] For example the density of the femur of a vehicle treated rat imaged on week 0 is measured at 3028, 3597 and 3329 units (average=3318) and the phantom measured 4209 units. […] The relative density on bone at week 3 compared to week 0 is then calculated as: average week 3normalized/average week 0*100=3378/3318*100=101.8% The mean change in bone density of both groups after three weeks of treatment is shown in FIG. 5. […]

rat calvarial defect [3] = assay: Rat calvarial defect model, drug in calcium phosphate cement suspended in demineralized bone matrix putty; type: in vivo, female Sprague Dawley rats; details: 2.6 mm defect, eight weeks
Experimental: The rat calvarial defect model is a widely used model through which the ability of a treatment agent to induce bone formation is assessed (Aghaloo et al., The effect of NELL1 and bone morphogenetic protein-2 on calvarial bone regeneration, J. Oral Maxillofac. Surg. 2010: 68:300-308; Mark et al., Repair of calvarial nonunions by osteogenin, a bone-inductive protein, Plast. Reconstr. Surg. 1990: 86:623-30).
Bone defects are created by removal of bone from the cranium of female Sprague Dawley rats by a bone trephine (cranial defect). Cranial defects are 2.6 mm in diameter and the cranium approximately 1 mm thick. A matrix of approximately 2 mm thickness is applied to the defect. Thus the dosing volume for each defect is calculated as π*r^2*matrix thickness=3.14*1.3^2*2=10.61 μl and rounded to 11 μl for purposes of dose calculation.
EXAMPLE 2C is tested at seven doses with five rats in each group. These are 3, 10, 30, 100 and 300 μg/ml and 1 and 3 mg/ml. A negative control group treated with dosing matrix containing no drug (Vehicle) as well as a positive control group treated with 50 μg/ml recombinant human bone morphogenetic protein 2 (BMP-2) are also included in the study. […]
The area measured each week is compared to that of the first week and the degree of repair calculated by the following formula: (original area−current area)/original area*100 […]

T1 sequence (P35408 whole entry): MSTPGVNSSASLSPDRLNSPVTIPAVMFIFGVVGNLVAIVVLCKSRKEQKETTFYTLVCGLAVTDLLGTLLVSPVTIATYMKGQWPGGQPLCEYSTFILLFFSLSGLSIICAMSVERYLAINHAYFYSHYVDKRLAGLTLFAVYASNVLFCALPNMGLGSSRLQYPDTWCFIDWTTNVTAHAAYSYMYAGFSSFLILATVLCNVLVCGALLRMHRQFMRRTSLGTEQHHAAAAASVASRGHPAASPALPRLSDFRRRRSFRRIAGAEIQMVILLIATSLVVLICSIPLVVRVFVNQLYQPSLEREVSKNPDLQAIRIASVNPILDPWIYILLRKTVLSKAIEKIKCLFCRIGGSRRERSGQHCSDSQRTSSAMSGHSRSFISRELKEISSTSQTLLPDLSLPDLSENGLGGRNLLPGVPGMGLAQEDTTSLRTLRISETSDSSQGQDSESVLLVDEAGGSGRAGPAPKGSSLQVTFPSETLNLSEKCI

- melting point: 104 to 105 °C
SMILES: CCCC#CCC(C)[C@H](O)/C=C/[C@H]1CCC(=O)N1CCCCCCC(=O)O (mixture of isomers) [3C′, 7-((2R)-2-((3S,4R/S,E)-3-hydroxy-4-methyldec-1-en-6-yn-1-yl)-5-oxopyrrolidin-1-yl)heptanoic acid]

- hEP4 receptor binding, % @100 [1]: 86% @100
SMILES: CC#CCC(C)[C@H](O)/C=C/[C@H]1CCC(=O)N1CCCCCCC(=O)O (mixture of isomers) [Example 1C′, 7-((2R)-2-((3S,4R/S,E)-3-hydroxy-4-methyloct-1-en-6-yn-1-yl)-5-oxopyrrolidin-1-yl)heptanoic acid]

- hEP4 receptor binding, % @100 [1]: 11% @100
SMILES: CC#CCC(C)[C@@H](O)/C=C/[C@H]1CCC(=O)N1CCCCCCC(=O)O (mixture of isomers) [Example 1D′, 7-((2R)-2-((3R,4R/S,E)-3-hydroxy-4-methyloct-1-en-6-yn-1-yl)-5-oxopyrrolidin-1-yl)heptanoic acid]

More lines, now with the values behind:

SMILES: C[C@@H](CCCc1ccccc1)[C@H](O)/C=C/[C@H]1CC(F)(F)C(=O)N1CCCCCCC(=O)O [Example 6D, 7-((R)-3,3-difluoro-5-((3S,4S,E)-3-hydroxy-4-methyl-7-phenylhept-1-en-1-yl)-2-oxopyrrolidin-1-yl)heptanoic acid]
- IC50 ([1]; 0.5 nM [3H]PGE2, HEK-293 cell membrane homogenates, read-out: hEP4 receptor binding (nM) IC50): 2.4 nM
- Ki ([1]; 0.5 nM [3H]PGE2, HEK-293 cell membrane homogenates, read-out: hEP4 receptor binding (nM) Ki): 0.89 nM

SMILES: CCC#CC[C@H](C)[C@H](O)/C=C/[C@H]1CCC(=O)N1CCCCCCC(=O)O [2E′, 7-((R)-2-((3S,4S,E)-3-hydroxy-4-methylnon-1-en-6-yn-1-yl)-5-oxopyrrolidin-1-yl)heptanoic acid]
- Healing of a calvarial bone defect, loaded into intact demineralized bone matrix (rat calvarial defect [2]): Accelerated Healing
- Bone density of osteoporotic femur (osteoporotic femur; 10 mg/gm cement insert, three weeks, FIG. 5): Increased Bone Density
- Healing of a calvarial bone defect (rat calvarial defect [3]; 3 mg/ml in cement-DBM putty 1:8, FIG. 2): Accelerated Healing

SMILES: C[C@@H](CCCc1ccccc1)[C@H](O)/C=C/[C@H]1CC(F)(F)C(=O)N1CCCc1ccc(C(=O)O)s1 [Example 28C, 5-(3-((R)-3,3-difluoro-5-((3S,4S,E)-3-hydroxy-4-methyl-7-phenylhept-1-en-1-yl)-2-oxopyrrolidin-1-yl)propyl)thiophene-2-carboxylic acid]
- Bone density of osteoporotic femur (osteoporotic femur; 100 μg/gm or 300 μg/gm cement insert, twenty weeks, FIG. 6): Increased Bone Density

SMILES: CCC#CC[C@H](C)[C@H](O)/C=C/[C@H]1CC(F)(F)C(=O)N1CCCCCCC(=O)O [Example 2C, 7-((R)-3,3-difluoro-5-((3S,4S,E)-3-hydroxy-4-methylnon-1-en-6-yn-1-yl)-2-oxopyrrolidin-1-yl)heptanoic acid]
- Healing of a calvarial bone defect (rat calvarial defect [3]; 3 μg/ml to 3 mg/ml in cement-DBM putty 1:8, FIG. 1): Accelerated Healing
